{"source": "patent US20210047441A1", "about": "“ANTHOCYANIDIN COMPLEX” (priority 2012, published 2021)", "key": {"[1]": {"test": "Solubility of delphinidin chloride in aqueous cyclodextrin solutions (Example 1)", "format": "physicochemical", "settings": "pure water, cyclodextrin concentration 0; stirred 20 hours at 30° C. in the dark, filtered 0.22 μm", "experimental": "In this example, the complexing of delphinidin by various cyclodextrins and the solubility of the complex in aqueous solution are studied.\nNeutral aqueous solutions comprising 10% by weight of the respective cyclodextrin were prepared.\nIn each case 5 ml of the aqueous cyclodextrin solutions and of pure water were introduced into glass flasks. An excess of delphinidin chloride was then added.\nThe suspensions were stirred for 20 hours at 30° C. in the dark. They were then filtered through a membrane filter of 0.22 μm pore size."}, "[2]": {"test": "Stability tests in aqueous solution, 0.9% NaCl at 37° C. (Example 5)", "format": "physicochemical", "settings": "0.9% NaCl solution, dark, start 1.584 mg/ml (complex), 0.0216 mg/ml (uncomplexed)", "description": "In order to determine the content of delphinidin chloride in the delphinidin-containing solutions, a reverse phase HPLC process similar to that already described above was used. The following reagents were used thereby:\nThe delphinidin content was determined after 1, 2, 3 and 4 hours.\nThe determination of the delphinidin content in the samples was calculated with the aid of Agilent ChemStation software using calibration with the described external standard."}}}
{"smiles": "Oc1cc(O)c2cc(O)c(-c3cc(O)c(O)c(O)c3)[o+]c2c1.[Cl-]", "note": "[Delphinidin chloride]", "values": [{"measurement": "Achievable solubility, Delphinidin chloride", "setting": "[1]", "result": 70, "unit": "µg/mL"}, {"measurement": "Delphinidin content as percentage of the starting concentration", "setting": "[2]; 0 h", "result": 100, "unit": "%"}, {"measurement": "Delphinidin content as percentage of the starting concentration", "setting": "[2]; 1 h", "result": 8.3, "unit": "%"}, {"measurement": "Delphinidin content as percentage of the starting concentration", "setting": "[2]; 2 h", "result": 6.5, "unit": "%"}, {"measurement": "Delphinidin content as percentage of the starting concentration", "setting": "[2]; 3 h", "result": 5.6, "unit": "%"}, {"measurement": "Delphinidin content as percentage of the starting concentration", "setting": "[2]; 4 h", "result": 5.1, "unit": "%"}]}
